Source: patent US20210137945A1, “METHOD FOR TREATING A CANCER ASSOCIATED WITH THE ACTIVATION OF GALECTIN-1” (TRINEO BIOTECHNOLOGY CO. LTD, priority 2019, published 2021)

Legend:
Type in all cases: cell-based
[1] = tested on: myeloma ARH-77 cells; assay: MTT assay of myeloma ARH-77 cells treated with chemotherapeutic drugs alone or combined; conditions: for IC50: ARH-77 cells, chemotherapeutic agent alone (control)
Procedure: (§1) Ovarian cancer cell ES-2 and myeloma cell line ARH-77 were used in the present disclosure. Cells was cultured and maintained in Dulbecco's modified Eagle media (DMEM) supplemented with 10% fetal bovine serum (FBS), 100 IU/ml penicillin, […] streptomycin, 2 mM glutamine, non-essential amino acids and sodium pyruvate in 5% CO2 at 37° C. Cells were grown and maintained in Petri dishes (each was 10 cm in diameter) until they reached 80% confluence, and then were subject to cell passages. Briefly, cells were first washed with phosphate buffer solution (PBS, 3 ml) once, then treated with 0.05% Trypsin/0.025% EDTA solution (1 mL) for 5 min so that the attached cells become suspended. The suspended cells were harvested and 2 mL fresh culture media were added therein to neutralize any remaining activity of trypsin. Cell density was adjusted by adding appropriate amounts of culture medium to the cell suspension, which was then used to seed the culture plates. The plates were then returned to the incubator, and cultured in accordance with the steps described above.
Cells were seeded in 96-well plates with a density of 3,000 cells/well and cultured in accordance with the procedures described above. On the day when cell activity analysis was to be conducted, cells were first treated with various concentrations of the triterpenoids of the present disclosure, imatinib or gefitinib for at least 48 hrs, before subjecting them to MTT assay.
(§2) 50 μL of the MTT stock solution (5 mg MTT dissolved in 1 ml of sterile PBS) was added to each well, and 50 μL of the MTT stock solution was added to 500 μL of medium alone and used as a negative control. Each sample was incubated at 37° C. for 4 hours. Aliquots (450 μl) from each sample were taken to a new well of 48-well culture plate, adding […], DMSO, mixing thoroughly using the pipette and reacted at 37° C. for 20 min and absorbance was measured at 570 nm.
Results are summarized in Tables 1 to 3, and FIGS. 3 and 4.
If no significance existed between the expected and observed values, the effect is termed“additivity (p>0.05)”. […] The expected value was determined by multiplying the survival rate of each drug in specific dose. The obtained value and value of each survival rate were measured by MMT assay (FIG. 3 and FIG. 4).

[2] = tested on: ovarian cancer cells (i.e., ES-2 cells); assay: MTT assay of cell activity, ES-2 cells; conditions: treated at least 48 hrs
Procedure: as §1, with “The suspended cells were harvested and 2 mL fresh culture media were added therein to neutralize any remaining activity of trypsin. Cell density was adjusted by adding appropriate amounts of culture medium to the cell suspension, which was then used to seed the culture plates. The plates were then returned to the incubator, and cultured in accordance with the steps described above.” left out
as §2, with “Each sample was incubated at 37° C. for 4 hours.” left out
The effects of the TN-GL-01 composition of example 1.1 on ovarian cancer cells (i.e., ES-2 cells) were evaluated by MTT assay in accordance with procedures described in the “Material and Methods” section.

[3] = tested on: galectin-1; assay: Western blot analysis of galectin-1 expression in ES-2 cells; conditions: western blot (FIG. 2)
Procedure: Samples were respectively subjected to SDS-PAGE, transferred to PVDF membranes. These blots were blocked with 5% nonfat milk powder in TBS-0.1% Tween-20 for 30 minutes, followed by incubation with primary antibodies at 4° C. overnight and then horseradish peroxidase-conjugated secondary antibodies (Amersham Biosciences, Piscataway). Imaging of bands was performed using Pierce ECL Western Blotting Substrate (Thermo Fisher Scientific) and ImageQuant LAS-4000 (GE Healthcare).
In this example, the effects of TN-GL-01 composition on the expression of galectin-1 in ERK (extracellular-signal-regulated kinase) pathway was investigated via western blot analysis. […] Thus, it was concluded that the present TN-GL-01 composition exerted its function through suppression of galectin-1.

N.N.[Cl][Pt][Cl] [Cisplatin, cisplatin]
Cell survival rate of the single drug ([1]; ARH-77, Table 2, Cisplatin 3 μM alone): 0.65
Cell survival rate of the single drug ([1]; ARH-77, Table 3, Cisplatin 3 μM alone): 0.69

COc1cccc2c1C(=O)c1c(O)c3c(c(O)c1C2=O)C[C@@](O)(C(=O)CO)C[C@@H]3O[C@H]1C[C@H](N)[C@H](O)[C@H](C)O1 [Doxorubicin, doxorubicin]
Cell survival rate of the single drug ([1]; ARH-77, Table 2, Doxorubicin 100 nM alone): 0.58
Cell survival rate of the single drug ([1]; ARH-77, Table 3, Doxorubicin 250 nM alone): 0.66
Cell survival rate of the single drug ([1]; ARH-77, Table 3, Doxorubicin 500 nM alone): 0.66
IC50 ([1]; Homo sapiens): 99 nM

COc1cc([C@@H]2c3cc4c(cc3[C@@H](O[C@@H]3O[C@@H]5CO[C@@H](C)O[C@H]5[C@H](O)[C@H]3O)[C@H]3COC(=O)[C@H]23)OCO4)cc(OC)c1O [Etoposide, etoposide]
IC50 [1]: 415 nM

C/C(=C/CC[C@@H](C)[C@H]1CC[C@@]2(C)C3=CC[C@H]4C(C)(C)C(=O)CC[C@]4(C)C3=CC[C@]12C)C(=O)O [GAS, ganoderic acid S]
50% inhibition of ES-2 cells (IC50) [2]: 58.3 µg/mL
expression of galectin-1 [3]: effective in suppressing the expression of galectin-1

CC(=O)O[C@@H](C/C=C(\C)C(=O)O)[C@@H](C)[C@H]1C[C@H](OC(C)=O)[C@@]2(C)C3=CC[C@H]4C(C)(C)[C@H](OC(C)=O)CC[C@]4(C)C3=CC[C@]12C [GAT, ganoderic acid T]
50% inhibition of ES-2 cells (IC50) [2]: 24.5 µg/mL
expression of galectin-1 [3]: effective in suppressing the expression of galectin-1

CC(=O)O[C@H]1C(=O)[C@@]2(C)[C@H]([C@H](OC(=O)c3ccccc3)[C@]3(O)C[C@H](OC(=O)[C@H](O)[C@@H](NC(=O)c4ccccc4)c4ccccc4)C(C)=C1C3(C)C)[C@]1(OC(C)=O)CO[C@@H]1C[C@@H]2O [Paclitaxel, paclitaxel]
Cell survival rate of the single drug ([1]; ARH-77, Table 2, Paclitaxel 62.5 nM alone): 0.68
Cell survival rate of the single drug ([1]; ARH-77, Table 2, Paclitaxel 125 nM alone): 0.50
Cell survival rate of the single drug ([1]; ARH-77, Table 3, Paclitaxel 40 μM alone): 0.65
